In experiment [1] the target is Dual specificity mitogen-activated protein kinase kinase 1 (Homo sapiens) (UniProt Q02750). The experiment is described as follows: Inhibition of MKK1 (unknown origin) at 10 uM incubated for 30 mins in presence of [gamma-33P]ATP by multidrop micro reagent based assay relative to control.
For experiment [2], the target named is Serine/threonine-protein kinase Nek6 (Homo sapiens) (UniProt Q9HC98). Nature of the experiment: Residual activity of NEK6 (unknown origin) at 10 uM incubated for 30 mins in presence of [gamma-33P]ATP by multidrop micro reagent based assay relative to control.
Experiment [3] has as its target Serine/threonine-protein kinase pim-2 (Homo sapiens) (UniProt Q9P1W9). The experiment is described as follows: Inhibition of PIM2 (unknown origin) at 10 uM incubated for 30 mins in presence of [gamma-33P]ATP by multidrop micro reagent based assay relative to control; values are per cent of control.
The target of experiment [4] is T1, Serine/threonine-protein kinase 3 (Homo sapiens) (UniProt Q13188).
T1 sequence (whole entry): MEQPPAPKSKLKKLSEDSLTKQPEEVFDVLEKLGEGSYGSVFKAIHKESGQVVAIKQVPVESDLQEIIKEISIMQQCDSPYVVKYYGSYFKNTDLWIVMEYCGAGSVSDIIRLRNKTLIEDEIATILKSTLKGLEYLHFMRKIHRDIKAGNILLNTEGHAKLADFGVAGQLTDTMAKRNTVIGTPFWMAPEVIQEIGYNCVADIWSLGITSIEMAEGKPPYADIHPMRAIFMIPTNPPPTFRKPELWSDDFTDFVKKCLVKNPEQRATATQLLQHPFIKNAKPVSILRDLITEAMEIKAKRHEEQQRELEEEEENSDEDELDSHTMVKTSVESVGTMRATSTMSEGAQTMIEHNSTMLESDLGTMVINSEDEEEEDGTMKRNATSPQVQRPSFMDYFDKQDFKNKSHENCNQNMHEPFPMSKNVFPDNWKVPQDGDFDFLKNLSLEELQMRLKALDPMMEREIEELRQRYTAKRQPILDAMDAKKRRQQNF
The experiment is described as follows: Inhibition of MST2 (unknown origin) at 10 uM incubated for 30 mins in presence of [gamma-33P]ATP by multidrop micro reagent based assay relative to control; values are per cent of control.

Experiment [5] concerns the target Serine/threonine-protein kinase PAK 5 (Homo sapiens) (UniProt Q9P286). The experiment is described as follows: Inhibition of PAK5 (unknown origin) at 10 uM incubated for 30 mins in presence of [gamma-33P]ATP by multidrop micro reagent based assay relative to control; values are per cent of control.
The target of experiment [6] is T2, Serine/threonine-protein kinase TBK1 (Homo sapiens) (UniProt Q9UHD2).
T2 sequence (whole entry): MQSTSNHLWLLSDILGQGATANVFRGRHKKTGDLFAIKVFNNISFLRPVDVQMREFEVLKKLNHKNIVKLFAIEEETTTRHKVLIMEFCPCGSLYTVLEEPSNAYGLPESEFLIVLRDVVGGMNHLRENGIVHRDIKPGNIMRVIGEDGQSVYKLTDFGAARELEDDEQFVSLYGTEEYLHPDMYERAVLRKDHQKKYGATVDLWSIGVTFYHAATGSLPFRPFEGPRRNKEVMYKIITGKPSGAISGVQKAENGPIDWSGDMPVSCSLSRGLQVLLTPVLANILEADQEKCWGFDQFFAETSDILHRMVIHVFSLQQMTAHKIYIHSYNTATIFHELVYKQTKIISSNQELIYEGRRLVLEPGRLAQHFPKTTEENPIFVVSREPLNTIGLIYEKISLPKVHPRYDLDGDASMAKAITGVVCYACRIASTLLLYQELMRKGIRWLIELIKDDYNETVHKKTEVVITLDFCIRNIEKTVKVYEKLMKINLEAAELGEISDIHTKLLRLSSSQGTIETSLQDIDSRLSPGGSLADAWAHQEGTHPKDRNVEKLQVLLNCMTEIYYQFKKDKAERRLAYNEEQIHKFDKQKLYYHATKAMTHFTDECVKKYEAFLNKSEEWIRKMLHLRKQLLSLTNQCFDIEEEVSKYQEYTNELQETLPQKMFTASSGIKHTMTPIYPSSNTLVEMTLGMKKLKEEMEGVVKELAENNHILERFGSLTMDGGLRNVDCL
The experiment is described as follows: Inhibition of TBK1 (unknown origin) at 10 uM incubated for 30 mins in presence of [gamma-33P]ATP by multidrop micro reagent based assay relative to control; values are per cent of control.

The target in experiment [7] is Mitogen-activated protein kinase 11 (Homo sapiens) (UniProt Q15759). Nature of the experiment: Inhibition of p38beta MAPK (unknown origin) at 10 uM incubated for 30 mins in presence of [gamma-33P]ATP by multidrop micro reagent based assay relative to control; values are per cent of control.
The target of experiment [8] is Receptor tyrosine-protein kinase erbB-4 (Homo sapiens) (UniProt Q15303). Nature of the experiment: Inhibition of HER4 (unknown origin) at 1 uM incubated for 30 mins in presence of [gamma-33P]ATP by multidrop micro reagent based assay relative to control; values are per cent of control.
The target in experiment [9] is T3, Dual specificity tyrosine-phosphorylation-regulated kinase 3 (Homo sapiens) (UniProt O43781).
T3 sequence (whole entry): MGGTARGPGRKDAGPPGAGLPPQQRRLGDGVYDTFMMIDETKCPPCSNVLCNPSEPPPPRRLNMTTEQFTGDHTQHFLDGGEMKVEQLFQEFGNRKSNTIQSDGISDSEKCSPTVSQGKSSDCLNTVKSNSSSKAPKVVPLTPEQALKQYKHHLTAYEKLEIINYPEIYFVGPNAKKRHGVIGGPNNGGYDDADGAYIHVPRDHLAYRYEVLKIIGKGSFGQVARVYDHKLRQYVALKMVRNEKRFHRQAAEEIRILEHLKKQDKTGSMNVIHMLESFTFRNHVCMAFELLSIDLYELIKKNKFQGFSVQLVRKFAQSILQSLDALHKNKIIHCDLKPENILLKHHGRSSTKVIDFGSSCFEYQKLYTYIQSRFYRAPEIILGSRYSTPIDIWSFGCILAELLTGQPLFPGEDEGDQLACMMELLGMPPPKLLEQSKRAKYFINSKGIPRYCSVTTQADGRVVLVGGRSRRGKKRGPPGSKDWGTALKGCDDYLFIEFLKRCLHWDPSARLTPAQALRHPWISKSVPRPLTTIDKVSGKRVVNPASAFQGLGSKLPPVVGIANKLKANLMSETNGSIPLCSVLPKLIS
The experiment is described as follows: Inhibition of DYRK3 (unknown origin) at 1 uM incubated for 30 mins in presence of [gamma-33P]ATP by multidrop micro reagent based assay relative to control; values are per cent of control.

What is called inhibition is how much of the control response was suppressed.

Chain of Serine/threonine-protein kinase Nek6 (Homo sapiens) (Q9HC98 whole entry): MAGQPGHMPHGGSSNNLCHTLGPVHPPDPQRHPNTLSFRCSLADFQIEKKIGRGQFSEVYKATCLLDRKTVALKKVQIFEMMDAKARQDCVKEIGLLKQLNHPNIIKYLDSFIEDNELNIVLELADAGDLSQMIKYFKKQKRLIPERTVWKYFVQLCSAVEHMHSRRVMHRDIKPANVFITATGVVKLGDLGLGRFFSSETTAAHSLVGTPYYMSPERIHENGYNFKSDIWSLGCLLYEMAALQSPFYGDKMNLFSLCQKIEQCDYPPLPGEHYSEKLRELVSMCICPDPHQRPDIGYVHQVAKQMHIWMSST
Chain of Serine/threonine-protein kinase pim-2 (Homo sapiens) (Q9P1W9 whole entry, looked up): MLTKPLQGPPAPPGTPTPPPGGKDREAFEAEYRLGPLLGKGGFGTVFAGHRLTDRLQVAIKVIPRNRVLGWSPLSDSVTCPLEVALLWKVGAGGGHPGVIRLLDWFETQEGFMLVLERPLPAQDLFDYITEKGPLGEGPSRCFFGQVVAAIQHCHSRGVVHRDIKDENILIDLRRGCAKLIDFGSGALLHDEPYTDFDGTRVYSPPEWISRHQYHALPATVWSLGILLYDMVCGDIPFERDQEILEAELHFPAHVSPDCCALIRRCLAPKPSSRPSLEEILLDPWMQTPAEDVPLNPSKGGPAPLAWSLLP
Chain of Receptor tyrosine-protein kinase erbB-4 (Homo sapiens) (Q15303 whole entry): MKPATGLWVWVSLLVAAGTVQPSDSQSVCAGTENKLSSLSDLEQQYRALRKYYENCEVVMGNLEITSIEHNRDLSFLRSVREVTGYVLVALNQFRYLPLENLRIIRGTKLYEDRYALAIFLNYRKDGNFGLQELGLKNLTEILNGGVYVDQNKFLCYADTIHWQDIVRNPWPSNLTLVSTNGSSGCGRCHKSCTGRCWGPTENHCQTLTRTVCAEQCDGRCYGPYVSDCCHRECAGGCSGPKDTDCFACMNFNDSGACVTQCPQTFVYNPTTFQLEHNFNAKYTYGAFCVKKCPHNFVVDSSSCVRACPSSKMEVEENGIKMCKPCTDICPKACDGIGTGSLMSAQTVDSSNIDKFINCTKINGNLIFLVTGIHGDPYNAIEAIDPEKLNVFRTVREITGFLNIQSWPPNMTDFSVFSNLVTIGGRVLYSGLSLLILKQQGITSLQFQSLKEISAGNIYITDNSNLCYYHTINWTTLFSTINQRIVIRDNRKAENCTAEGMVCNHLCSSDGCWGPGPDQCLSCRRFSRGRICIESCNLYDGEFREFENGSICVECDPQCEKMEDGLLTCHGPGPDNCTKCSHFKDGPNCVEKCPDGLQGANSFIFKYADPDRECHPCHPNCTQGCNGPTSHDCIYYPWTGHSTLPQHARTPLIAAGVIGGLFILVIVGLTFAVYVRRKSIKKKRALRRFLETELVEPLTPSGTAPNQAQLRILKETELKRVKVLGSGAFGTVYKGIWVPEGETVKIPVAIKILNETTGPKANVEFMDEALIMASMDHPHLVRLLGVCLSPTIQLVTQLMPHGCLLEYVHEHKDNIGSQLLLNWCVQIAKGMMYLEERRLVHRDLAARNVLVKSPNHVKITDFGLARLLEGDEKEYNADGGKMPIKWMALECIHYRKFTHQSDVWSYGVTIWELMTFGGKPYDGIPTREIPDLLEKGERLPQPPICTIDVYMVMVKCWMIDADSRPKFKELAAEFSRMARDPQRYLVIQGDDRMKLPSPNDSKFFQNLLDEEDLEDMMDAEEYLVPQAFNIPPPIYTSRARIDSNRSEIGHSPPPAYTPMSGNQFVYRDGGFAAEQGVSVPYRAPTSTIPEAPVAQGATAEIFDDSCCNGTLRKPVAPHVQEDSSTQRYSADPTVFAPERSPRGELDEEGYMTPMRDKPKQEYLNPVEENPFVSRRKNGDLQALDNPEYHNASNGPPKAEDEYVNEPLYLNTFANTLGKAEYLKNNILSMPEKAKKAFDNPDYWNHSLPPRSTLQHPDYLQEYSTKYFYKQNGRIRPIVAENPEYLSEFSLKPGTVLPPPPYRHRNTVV
Chain of Dual specificity mitogen-activated protein kinase kinase 1 (Homo sapiens) (Q02750 whole entry): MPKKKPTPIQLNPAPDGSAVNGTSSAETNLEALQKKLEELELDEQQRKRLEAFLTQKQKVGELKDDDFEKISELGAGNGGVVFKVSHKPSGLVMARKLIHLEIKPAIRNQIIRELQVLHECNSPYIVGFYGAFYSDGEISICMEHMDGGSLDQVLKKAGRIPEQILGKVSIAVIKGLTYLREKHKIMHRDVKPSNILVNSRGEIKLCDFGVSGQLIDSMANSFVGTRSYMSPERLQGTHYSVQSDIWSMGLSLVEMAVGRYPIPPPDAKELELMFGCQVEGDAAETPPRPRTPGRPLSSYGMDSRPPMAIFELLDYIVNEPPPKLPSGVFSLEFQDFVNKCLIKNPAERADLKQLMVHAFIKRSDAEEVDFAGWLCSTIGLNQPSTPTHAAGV
Chain of Serine/threonine-protein kinase PAK 5 (Homo sapiens) (Q9P286 whole entry, looked up): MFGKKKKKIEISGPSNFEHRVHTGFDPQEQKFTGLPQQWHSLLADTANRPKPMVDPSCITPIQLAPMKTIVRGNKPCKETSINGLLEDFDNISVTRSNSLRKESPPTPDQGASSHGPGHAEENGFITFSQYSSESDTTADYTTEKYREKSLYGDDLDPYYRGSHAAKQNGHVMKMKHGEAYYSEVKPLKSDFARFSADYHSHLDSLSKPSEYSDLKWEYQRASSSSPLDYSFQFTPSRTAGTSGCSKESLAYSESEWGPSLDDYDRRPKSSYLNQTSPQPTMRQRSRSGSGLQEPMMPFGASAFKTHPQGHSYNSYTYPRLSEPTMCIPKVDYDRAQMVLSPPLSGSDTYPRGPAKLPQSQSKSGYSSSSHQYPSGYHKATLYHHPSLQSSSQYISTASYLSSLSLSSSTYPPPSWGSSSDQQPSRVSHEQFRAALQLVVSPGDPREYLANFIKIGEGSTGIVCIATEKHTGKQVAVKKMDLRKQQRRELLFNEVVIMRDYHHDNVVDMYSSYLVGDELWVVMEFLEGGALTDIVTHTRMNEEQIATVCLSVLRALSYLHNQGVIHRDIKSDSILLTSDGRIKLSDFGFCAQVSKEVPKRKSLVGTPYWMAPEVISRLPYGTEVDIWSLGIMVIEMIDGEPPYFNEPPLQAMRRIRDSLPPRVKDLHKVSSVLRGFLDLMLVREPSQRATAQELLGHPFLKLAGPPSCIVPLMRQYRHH
Chain of Mitogen-activated protein kinase 11 (Homo sapiens) (Q15759 whole entry): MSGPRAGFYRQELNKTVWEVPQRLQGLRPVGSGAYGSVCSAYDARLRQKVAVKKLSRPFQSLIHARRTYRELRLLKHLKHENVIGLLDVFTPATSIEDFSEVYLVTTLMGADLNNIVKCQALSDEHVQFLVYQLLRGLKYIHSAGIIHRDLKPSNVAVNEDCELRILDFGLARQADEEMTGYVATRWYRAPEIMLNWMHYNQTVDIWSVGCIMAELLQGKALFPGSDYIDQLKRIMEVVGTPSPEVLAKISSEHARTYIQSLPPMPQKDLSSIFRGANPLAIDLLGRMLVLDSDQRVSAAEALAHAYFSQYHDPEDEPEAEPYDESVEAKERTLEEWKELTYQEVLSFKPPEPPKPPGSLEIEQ

Regarding `C[C@@H](N)[C@H]1CC[C@H](C(=O)Nc2ccncc2)CC1`, the inhibition in [1] was 71%. Further, the residual activity in [2] stood at 80%; in [3], 102%; in [4], 61%; in [5], 101%; in experiment [6], 69%; in experiment [7] it was 101%.

For `Cc1cncc2cccc(S(=O)(=O)N3CCCNC[C@@H]3C)c12`, the residual activity in experiment [8] amounted to 107%.

For `CCn1c(-c2nonc2N)nc2cnc(Oc3cccc(NC(=O)c4ccc(OCCN5CCOCC5)cc4)c3)cc21` [GSK-269962A], in experiment [9], the residual activity stood at 77%.

For `O=S(=O)(c1cccc2cnccc12)N1CCCNCC1` [FASUDIL], the inhibition in experiment [1] came out at 41%. Also, the residual activity worked out at 107% in [2]; 111% in [3]; 51% in experiment [4]; 112% in experiment [5]; 110% in experiment [6]; 111% in experiment [7].

On to `CC1=C(C(=O)Nc2cc3cn[nH]c3cc2F)C(c2ccc(C(F)(F)F)cc2)CC(=O)N1` (stereo not drawn), for which the results for the residual activity in experiment [8] and in [9] were 50% and 94%, respectively.

The values above are taken from ChEMBL document CHEMBL5705888, “Substrate specificity and inhibitors of LRRK2, a protein kinase mutated in Parkinson's disease” (Biochem J, 2009).
